According to PubChem BioAssay AID248 (DTP/NCI, 2004):
Where “and” joins values, the source holds several entries; their conditions need not be identical. Equal entries are not always repeated. Toxic doses and inconclusive results are not listed. Cut-off read from the data, not from the text of the source: active = T/C of 150% or more; inactive = T/C below 125%.

Tested on: L1210 leukemia ip in BDF1 mice, survival T/C
Test: NCI In Vivo Anticancer Drug Screen. Data for tumor model L1210 Leukemia (intraperitoneal) in B6D2F1 (BDF1) mice
Conditions: endpoint: mean survival time, higher = longer survival
How it was run: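 Transplanted-tumor mice were given test agent; controls received vehicle only. Survival readings from the two groups were divided (treated over control).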

[1] = dose: 25.0 mg/kg/injection, schedule: Q01DX009 (ip), vehicle: Klucel (hydroxypropylcellulose) (HPC)
[2] = dose: 50.0 mg/kg/injection, schedule: Q01DX001 (ip), vehicle: saline
[3] = dose: 50.0 mg/kg/injection, schedule: Q01DX009 (ip), vehicle: Klucel (hydroxypropylcellulose) (HPC)
[4] = dose: 100.0 mg/kg/injection, schedule: Q01DX001 (ip), vehicle: saline
[5] = dose: 100.0 mg/kg/injection, schedule: Q01DX009 (ip), vehicle: Klucel (hydroxypropylcellulose) (HPC)
[6] = dose: 200.0 mg/kg/injection, schedule: Q01DX001 (ip), vehicle: saline
[7] = dose: 200.0 mg/kg/injection, schedule: Q01DX009 (ip), vehicle: Klucel (hydroxypropylcellulose) (HPC)
[8] = dose: 25.0 mg/kg/injection, schedule: Q04DX003 (ip), vehicle: saline
[9] = dose: 100.0 mg/kg/injection, schedule: Q01DX001 (ip), vehicle: Klucel (hydroxypropylcellulose) (HPC)
[10] = dose: 200.0 mg/kg/injection, schedule: Q01DX001 (ip), vehicle: Klucel (hydroxypropylcellulose) (HPC)
[11] = dose: 100.0 mg/kg/injection, schedule: Q04DX003 (ip), vehicle: Klucel (hydroxypropylcellulose) (HPC)
[12] = dose: 200.0 mg/kg/injection, schedule: Q04DX003 (ip), vehicle: Klucel (hydroxypropylcellulose) (HPC)
[13] = dose: 400.0 mg/kg/injection, schedule: Q04DX003 (ip), vehicle: Klucel (hydroxypropylcellulose) (HPC)
[14] = dose: 50.0 mg/kg/injection, schedule: Q01DX009 (ip), vehicle: saline with Tween-80
[15] = dose: 100.0 mg/kg/injection, schedule: Q01DX009 (ip), vehicle: saline with Tween-80
[16] = dose: 400.0 mg/kg/injection, schedule: Q01DX009 (ip), vehicle: Klucel (hydroxypropylcellulose) (HPC)
[17] = dose: 100.0 mg/kg/injection, schedule: Q04DX003 (ip), vehicle: saline with Tween-80
[18] = dose: 200.0 mg/kg/injection, schedule: Q04DX003 (ip), vehicle: saline with Tween-80
[19] = dose: 400.0 mg/kg/injection, schedule: Q04DX003 (ip), vehicle: saline with Tween-80
[20] = dose: 200.0 mg/kg/injection, schedule: Q01DX009 (ip), vehicle: saline with Tween-80
[21] = dose: 400.0 mg/kg/injection, schedule: Q01DX009 (ip), vehicle: saline with Tween-80
[22] = dose: 100.0 mg/kg/injection, schedule: Q01DX009 (ip), vehicle: saline
[23] = dose: 100.0 mg/kg/injection, schedule: Q04DX003 (ip), vehicle: saline
[24] = dose: 200.0 mg/kg/injection, schedule: Q01DX009 (ip), vehicle: saline
[25] = dose: 200.0 mg/kg/injection, schedule: Q04DX003 (ip), vehicle: saline
[26] = dose: 400.0 mg/kg/injection, schedule: Q01DX009 (ip), vehicle: saline

Measured: T/C

CN=NNc1ccc(C)cc1
inactive: [1] 89 % of control | [2] 108 % of control | [3] 105 % of control and 117 % of control | [4] 108 % of control | [5] 102 % of control and 120 % of control | dose: 150.0 mg/kg/injection, schedule: Q01DX009 (ip), vehicle: Klucel (hydroxypropylcellulose) (HPC) 113 % of control | [6] 116 % of control | [7] 99 % of control and 91 % of control

CCN(CC)Cc1cc(-n2cnc3c(Cl)ncnc32)ccc1O
inactive: dose: 6.25 mg/kg/injection, schedule: Q04DX003 (ip), vehicle: saline 101 % of control | dose: 12.5 mg/kg/injection, schedule: Q04DX003 (ip), vehicle: saline 103 % of control | [8] 96 % of control

O=[N+]([O-])c1cccc(/C(Cl)=C/CCl)c1
inactive: dose: 50.0 mg/kg/injection, schedule: Q01DX001 (ip), vehicle: Klucel (hydroxypropylcellulose) (HPC) 98 % of control | [9] 101 % of control | [10] 97 % of control

COC(=O)C1C2CCC3C2C(C)(C)CCCC31C (centres undefined)
inactive: [11] 98 % of control | [12] 106 % of control | [13] 103 % of control

CC(C)(C)OC(=O)NC(CCCCNC(=O)C(F)(F)F)C(=O)ON1C(=O)CCC1=O (centres undefined)
inactive: dose: 25.0 mg/kg/injection, schedule: Q01DX009 (ip), vehicle: saline with Tween-80 93 % of control | [14] 95 % of control | [15] 90 % of control

O=C(NN(c1ccc([N+](=O)[O-])cc1)c1ccc([N+](=O)[O-])cc1)c1ccccc1
inactive: [3] 103 % of control | [5] 100 % of control | [11] 94 % of control | [7] 102 % of control | [12] 93 % of control | [16] 102 % of control | [13] 94 % of control

O=C1C2CCCCC2C(=O)N1C1=NC=NC2=NC=NC21 (centres undefined)
inactive: [17] 98 % of control | [18] 101 % of control | [19] 95 % of control

NC(=O)NC1c2ccccc2-c2ccccc21
inactive: dose: 50.0 mg/kg/injection, schedule: Q01DX001 (ip), vehicle: carboxymethylcellulose (CMC) 93 % of control | dose: 100.0 mg/kg/injection, schedule: Q01DX001 (ip), vehicle: carboxymethylcellulose (CMC) 93 % of control | dose: 200.0 mg/kg/injection, schedule: Q01DX001 (ip), vehicle: carboxymethylcellulose (CMC) 93 % of control | dose: 400.0 mg/kg/injection, schedule: Q01DX001 (ip), vehicle: carboxymethylcellulose (CMC) 93 % of control

CCN=C(N)N=C(N)N
inactive: dose: 25.0 mg/kg/injection, schedule: Q01DX001 (ip), vehicle: saline 96 % of control | [2] 106 % of control | [4] 102 % of control

CCOC1=NN(c2ccccc2)C(=O)C1
inactive: [15] 104 % of control | [20] 101 % of control | [21] 97 % of control

COC(=O)CN(c1c(C)cc(C)c(N)c1C)S(=O)(=O)c1ccccc1
inactive: [9] 95 % of control | [11] 96 % of control | [10] 103 % of control | [12] 100 % of control | dose: 400.0 mg/kg/injection, schedule: Q01DX001 (ip), vehicle: Klucel (hydroxypropylcellulose) (HPC) 97 % of control | [13] 107 % of control

CC(=O)OCC(=O)c1cc(C)n(C)c(=O)c1CN1C(=O)c2ccccc2C1=O
inactive: [15] 107 % of control | [17] 97 % of control | [20] 102 % of control | [18] 96 % of control | [21] 108 % of control | [19] 96 % of control

O=C(O)c1cnc(C(=O)O)cn1
inactive: [3] 98 % of control | [5] 87 % of control | [7] 91 % of control

O=C(O)C(c1ccccc1)C1CCCC1 (centres undefined)
inactive: [14] 102 % of control | [15] 105 % of control | [11] 98 % of control | [20] 100 % of control | [12] 100 % of control | [13] 98 % of control

CC1=CC(=O)OC(C)(C)O1
inactive: [22] 103 % of control | [23] 100 % of control | [24] 101 % of control | [25] 91 % of control | [26] 110 % of control | dose: 400.0 mg/kg/injection, schedule: Q04DX003 (ip), vehicle: saline 98 % of control

CC(=O)NC1C(Oc2ccccc2)OC(C(O)CO)C1O (centres undefined)
inactive: dose: 100.0 mg/kg/injection, schedule: Q01DX001 (sc), vehicle: saline 108 % of control | dose: 200.0 mg/kg/injection, schedule: Q01DX001 (sc), vehicle: saline 103 % of control | dose: 400.0 mg/kg/injection, schedule: Q01DX001 (sc), vehicle: saline 108 % of control

CC1NCCOC1c1ccccc1 (centres undefined)
inactive: dose: 12.5 mg/kg/injection, schedule: Q01DX009 (ip), vehicle: saline 93 % of control | dose: 25.0 mg/kg/injection, schedule: Q01DX009 (ip), vehicle: saline 108 % of control and 92 % of control | [8] 114 % of control | dose: 50.0 mg/kg/injection, schedule: Q01DX009 (ip), vehicle: saline 100 % of control and 108 % of control | dose: 50.0 mg/kg/injection, schedule: Q04DX003 (ip), vehicle: saline 103 % of control | [22] 106 % of control | [23] 100 % of control | [25] 88 % of control

CCN(CC)CN(CC)CC
inactive: dose: 25.0 mg/kg/injection, schedule: Q04DX002 (ip), vehicle: saline with Tween-80 103 % of control | dose: 50.0 mg/kg/injection, schedule: Q04DX002 (ip), vehicle: saline with Tween-80 100 % of control | dose: 100.0 mg/kg/injection, schedule: Q04DX002 (ip), vehicle: saline with Tween-80 98 % of control and 103 % of control

Nc1c(-c2ccccc2)nnn1-c1ccc2ccccc2c1
inactive: dose: 100.0 mg/kg/injection, schedule: Q04DX002 (ip), vehicle: gum acacia 101 % of control | dose: 200.0 mg/kg/injection, schedule: Q04DX002 (ip), vehicle: gum acacia 96 % of control | dose: 400.0 mg/kg/injection, schedule: Q04DX002 (ip), vehicle: gum acacia 96 % of control

CC(C)=CCc1c2c(c3occ(-c4ccc(O)c(O)c4)c(=O)c3c1O)C=CC(C)(C)O2
inactive: dose: 50.0 mg/kg/injection, schedule: Q04DX003 (ip), vehicle: Klucel (hydroxypropylcellulose) (HPC) 93 % of control | [11] 100 % of control | [12] 104 % of control

CCOC12c3ccccc3N(S(C)(=O)=O)C(C)C1C2(Br)Br (centres undefined)
inactive: [5] 94 % of control | [11] 110 % of control | [7] 94 % of control | [12] 102 % of control | [16] 90 % of control | [13] 109 % of control

CCSCN1CCN(CSCC)C(C)C1 (centres undefined)
inactive: [4] 104 % of control | [6] 106 % of control | dose: 400.0 mg/kg/injection, schedule: Q01DX001 (ip), vehicle: saline 112 % of control

CCCCCC1CCCC1
inactive: dose: 100.0 mg/kg/injection, schedule: Q04DX002 (ip), vehicle: saline 94 % of control | dose: 200.0 mg/kg/injection, schedule: Q04DX002 (ip), vehicle: saline 106 % of control | dose: 400.0 mg/kg/injection, schedule: Q04DX002 (ip), vehicle: saline 103 % of control

CCCCCCCCCCCCCCCCCC(S(=O)(=O)CC)S(=O)(=O)CC
inactive: [11] 93 % of control | [12] 93 % of control | [13] 90 % of control

COc1cc(/C=N/N2CCN(/N=C/c3cc(OC)c(OC)c(OC)c3)CC2)cc(OC)c1OC
inactive: [11] 103 % of control | [12] 101 % of control | [13] 103 % of control

N#CC(Nc1ccccc1C(N)=O)c1ccccc1 (centres undefined)
inactive: [22] 95 % of control | [24] 106 % of control | [26] 91 % of control

COc1c(/C=C/[N+](=O)[O-])ccc2c(C)c(C)oc12
inactive: [1] 98 % of control | [3] 95 % of control | [5] 101 % of control | [11] 98 % of control | [12] 87 % of control | [13] 92 % of control
